This passage reports inhibition results from ChEMBL document CHEMBL1149839, “Alkaloids from Daphniphyllum oldhami” (2008).

By inhibition is commonly meant the share of the control response that was lost under treatment. A lower inhibition goes with a weak effect.

The subject of test [1] is Platelet. The test is described as follows: Inhibition of PAF-induced platelet aggregation at 2.4 mmol/L. In kind it is functional.
For test [2], the system named is Platelet. Kind of test: Inhibition of PAF-induced platelet aggregation at 1.0 mmol/L. In kind it is functional.

For the molecule `CC(=O)Oc1ccccc1C(=O)O` [ASPIRIN], the inhibition at 2400 µM in the test on Platelet [1] is 44.9%.

In the test on Platelet [2], `CC(=O)O[C@@H](C[C@]12[C@@H]3CCC[C@@]34CCC3[C@H](O)N4[C@@H]1[C@@H](C(C)C)CC[C@@]32C)C(=O)[C@]1(C)CO[C@@]2(C)CC[C@H]1O2` [DAPHNIOLDHANINE H] had an inhibition at 1000 µM of 10.9%.

Molecule `C[C@@H]1CN2[C@H]3[C@@H]4CCC[C@@H]4C(=O)C[C@@H]3[C@]3(C)OC(=O)CC[C@]34CC[C@H]1[C@H]24` [DAPHNIOLDHANINE J] had an inhibition at 1000 µM with Platelet [2] of 71.6%.

Regarding `CCC1=CC[C@]2(CO1)[C@@H]1CCC3=C4[C@H](CC3)[C@H](C(=O)OC)C[C@]42CN(C)C1` [DEHYDRODAPHNIGRACILINE], in the test with Platelet [2], the inhibition at 1000 µM was found to be 13.4%.
